{
  "source": "patent US5831026A",
  "about": "“Process for purifying factor VIII” (Pharmacia & Upjohn AB, priority 1994, dated 1998)",
  "key": {"factor VIII": {"system": "factor VIII", "test": "Activity of factor VIII after addition of complexing agent to eluted solution from SP Sepharose FF, COATEST chromogenic assay", "assay_type": "biochemical", "conditions": "for Factor VIII activity (IU/ml) / Factor VIII activity (%): Example 8; for Factor VIII activity (%): 0 h without additive = 100", "procedure": "Tests without EDTA present were carried out for comparison.\n(§1) A conditioned medium (containing human serum albumin) from a different harvest than the previous Examples, was clarified and buffered with NH4 Ac. […] After elution, various amounts of EDTA were added to the resulting solution. Tests without EDTA present were carried out for comparison. The procoagulant activity of factor VIII was determined after storage at ambient temperature for up to 246 hours, in accordance to the procedure described in Example 5.\nas §1, with “28” for “246”\nA conditioned medium (containing human serum albumin) from a different harvest than the previous Examples, was clarified and buffered with NH4 Ac. The resulting solution was loaded onto a column containing SP SEPHAROSE® FF. This cation-exchange chromatography step was performed at 10° C. […] After elution, EDTA or 1,10-Phenanthroline were added to the resulting solution."}, "[1]": {"system": "metal-dependent proteases", "test": "Protease assay with resorufin-labeled casein in harvest solution (conditioned medium)", "assay_type": "biochemical, Chinese Hamster", "conditions": "for Mean absorbance: 37° C., 2 h preincubation + 17 h, pH 7.5; for Mean absorbance corrected: blank subtracted", "procedure": "The method chosen was a protease assay with casein which was resorufin-labeled. By treatment with proteases, resorufin-labeled peptides are released from the casein. The concentration of these resorufin-labeled peptides in the supernatant is a measure of the proteolytic activity present. The test sample was incubated at 37° C. for a period of time which was dependent upon the sample at issue. The absorption wave-length chosen was 574 run throughout the tests. […]\nPreincubation of the conditioned medium with or without EDTA was conducted at 37° C. for 2 h. After the addition of substrate, further incubation was carried out for 17 h. The pH in the incubation mixture was 7.5.\nAbsorbance corrected, refers to the absorption after subtraction of the blank value.\nConditioned medium (containing human serum albumin) was clarified and imidazole subsequently added in an amount ranging from 3.6 mM up to 360 mM.\nConditioned medium (containing human serum albumin) was clarified and histidine subsequently added in an amount ranging from 0.14 mM to 13.6 mM."}, "[2]": {"conditions": "3 mM EDTA in washing and elution liquid; harvest solution no. 2", "procedure": "Conditioned mediums (containing human serum albumin) from two consecutive harvests, were clarified and buffered with NH4 Ac. Each resulting solution, with a pH of 6.8, was loaded onto a column containing SP SEPHAROSE® FF sold by Pharmacia AB of Uppsala, Sweden. This cation-exchange chromatography step was performed at about 8° C. After washing, factor VIII was eluted with a salt buffer containing 0.8M NaCl and 0.1M NH4 Ac. The washing liquid as well as the elution liquid contained 3 mM EDTA in the tests with harvest solution no. 2. Tests without EDTA present was carried out for comparison (harvest solution no. 1). […] The concentration of unbound Ca^2+ -ions was determined by an ion-selective electrode."}, "[3]": {"conditions": "3 mM EDTA, incubation 4.5 h ambient"}, "[4]": {"conditions": "3 mM EDTA, incubation 7.5 h ambient"}, "[5]": {"conditions": "3 mM EDTA, incubation 24 h ambient"}},
  "data": [
    {"smiles": "O=C(O)CN(CCN(CC(=O)O)CC(=O)O)CC(=O)O", "note": "[EDTA, ethylenediamine tetraacetic acid]", "values": [
      {"measurement": "Activity of factor VIII in % of the initial value", "setting": "factor VIII; Example 6 (0.4M NaCl eluate), 3.0 mM EDTA, storage 24 h ambient", "result": 100, "unit": "%"},
      {"measurement": "Activity of factor VIII in % of the initial value", "setting": "factor VIII; Example 6 (0.4M NaCl eluate), 3.0 mM EDTA, storage 48 h ambient", "result": 96, "unit": "%"},
      {"measurement": "Activity of factor VIII in % of the initial value", "setting": "factor VIII; Example 6 (0.4M NaCl eluate), 3.0 mM EDTA, storage 72 h ambient", "result": 80, "unit": "%"},
      {"measurement": "Activity of factor VIII in % of the initial value", "setting": "factor VIII; Example 6 (0.4M NaCl eluate), 3.0 mM EDTA, storage 100 h ambient", "result": 91, "unit": "%"},
      {"measurement": "Activity of factor VIII in % of the initial value", "setting": "factor VIII; Example 6 (0.4M NaCl eluate), 3.0 mM EDTA, storage 246 h ambient", "result": 72, "unit": "%"},
      {"measurement": "Activity of factor VIII in % of the initial value", "setting": "factor VIII; Example 7 (0.8M NaCl eluate), 1 mM EDTA, storage 0 h ambient", "result": 100, "unit": "%"},
      {"measurement": "Activity of factor VIII in % of the initial value", "setting": "factor VIII; Example 7 (0.8M NaCl eluate), 1 mM EDTA, storage 5 h ambient", "result": 119, "unit": "%"},
      {"measurement": "Activity of factor VIII in % of the initial value", "setting": "factor VIII; Example 7 (0.8M NaCl eluate), 1 mM EDTA, storage 28 h ambient", "result": 64, "unit": "%"},
      {"measurement": "Activity of factor VIII in % of the initial value", "setting": "factor VIII; Example 7 (0.8M NaCl eluate), 2 mM EDTA, storage 0 h ambient", "result": 100, "unit": "%"},
      {"measurement": "Activity of factor VIII in % of the initial value", "setting": "factor VIII; Example 7 (0.8M NaCl eluate), 2 mM EDTA, storage 5 h ambient", "result": 120, "unit": "%"},
      {"measurement": "Activity of factor VIII in % of the initial value", "setting": "factor VIII; Example 7 (0.8M NaCl eluate), 2 mM EDTA, storage 28 h ambient", "result": 100, "unit": "%"},
      {"measurement": "Activity of factor VIII in % of the initial value", "setting": "factor VIII; Example 7 (0.8M NaCl eluate), 3 mM EDTA, storage 0 h ambient", "result": 100, "unit": "%"},
      {"measurement": "Activity of factor VIII in % of the initial value", "setting": "factor VIII; Example 7 (0.8M NaCl eluate), 3 mM EDTA, storage 5 h ambient", "result": 120, "unit": "%"},
      {"measurement": "Activity of factor VIII in % of the initial value", "setting": "factor VIII; Example 7 (0.8M NaCl eluate), 3 mM EDTA, storage 28 h ambient", "result": 90, "unit": "%"},
      {"measurement": "Activity of factor VIII in % of the initial value", "setting": "factor VIII; Example 7 (0.8M NaCl eluate), 4 mM EDTA, storage 0 h ambient", "result": 100, "unit": "%"},
      {"measurement": "Activity of factor VIII in % of the initial value", "setting": "factor VIII; Example 7 (0.8M NaCl eluate), 4 mM EDTA, storage 5 h ambient", "result": 109, "unit": "%"},
      {"measurement": "Activity of factor VIII in % of the initial value", "setting": "factor VIII; Example 7 (0.8M NaCl eluate), 4 mM EDTA, storage 28 h ambient", "result": 103, "unit": "%"},
      {"measurement": "Activity of factor VIII in % of the initial value", "setting": "factor VIII; Example 7 (0.8M NaCl eluate), 5 mM EDTA, storage 0 h ambient", "result": 100, "unit": "%"},
      {"measurement": "Activity of factor VIII in % of the initial value", "setting": "factor VIII; Example 7 (0.8M NaCl eluate), 5 mM EDTA, storage 5 h ambient", "result": 116, "unit": "%"},
      {"measurement": "Activity of factor VIII in % of the initial value", "setting": "factor VIII; Example 7 (0.8M NaCl eluate), 5 mM EDTA, storage 28 h ambient", "result": 91, "unit": "%"},
      {"measurement": "Factor VIII activity (IU/ml)", "setting": "factor VIII; [3]", "result": 813, "unit": "IU/ml"},
      {"measurement": "Factor VIII activity (%)", "setting": "factor VIII; [3]", "result": 92, "unit": "%"},
      {"measurement": "Factor VIII activity (IU/ml)", "setting": "factor VIII; [4]", "result": 862, "unit": "IU/ml"},
      {"measurement": "Factor VIII activity (%)", "setting": "factor VIII; [4]", "result": 97, "unit": "%"},
      {"measurement": "Factor VIII activity (IU/ml)", "setting": "factor VIII; [5]", "result": 763, "unit": "IU/ml"},
      {"measurement": "Factor VIII activity (%)", "setting": "factor VIII; [5]", "result": 86, "unit": "%"},
      {"measurement": "Protease activity (%)", "setting": "[1]; 0.23 mM EDTA", "result": 43, "unit": "%"},
      {"measurement": "Mean absorbance", "setting": "[1]; 0.23 mM EDTA", "result": 1835},
      {"measurement": "Mean absorbance corrected", "setting": "[1]; 0.23 mM EDTA", "result": 865},
      {"measurement": "Protease activity (%)", "setting": "[1]; 1.2 mM EDTA", "result": 8, "unit": "%"},
      {"measurement": "Mean absorbance", "setting": "[1]; 1.2 mM EDTA", "result": 1141},
      {"measurement": "Mean absorbance corrected", "setting": "[1]; 1.2 mM EDTA", "result": 171},
      {"measurement": "Protease activity (%)", "setting": "[1]; 2.3 mM EDTA", "result": 5, "unit": "%"},
      {"measurement": "Mean absorbance", "setting": "[1]; 2.3 mM EDTA", "result": 1069},
      {"measurement": "Mean absorbance corrected", "setting": "[1]; 2.3 mM EDTA", "result": 99},
      {"measurement": "Protease activity (%)", "setting": "[1]; 11.5 mM EDTA", "result": 1, "unit": "%"},
      {"measurement": "Mean absorbance", "setting": "[1]; 11.5 mM EDTA", "result": 994},
      {"measurement": "Mean absorbance corrected", "setting": "[1]; 11.5 mM EDTA", "result": 24},
      {"measurement": "Protease activity (%)", "setting": "[1]; 23 mM EDTA", "result": -2, "unit": "%"},
      {"measurement": "Mean absorbance", "setting": "[1]; 23 mM EDTA", "result": 933},
      {"measurement": "Mean absorbance corrected", "setting": "[1]; 23 mM EDTA", "result": -37},
      {"measurement": "Unbound Ca^2+ ions", "setting": "[2]", "result": 25, "unit": "mM"}
    ]}
  ]
}
